Read-outs that look alike come from different tables or passages of the source.
Columns and labels:
telomerase = molecular target: T1, telomerase (Homo sapiens, UniProt O14746); assay: Telomerase activity assay (TRAP-PCR-ELISA); format: biochemical; conditions: SGC-7901 cells extracts, 24-h treatment, mean ± SD
T1 construct: endogenous in cells; host or cells: SGC-7901
Experimental: Inhibit of telomerase activity was tested using the TRAP-PCR-ELISA assay. In detail, the SGC-7901 cells were firstly maintained in DMEM medium (GIBCO, New York) supplemented with 10% fetal bovineserum (GIBCO, NewYork), streptomycin (0.1 mg/mL) and penicillin (100 IU/mL) at 37 °C in a humidified atmosphere containing 5% CO2. After trypsinisation, 5 × 10^4 cultured cells in logarithmic growth were seeded into T25 flasks (Corning, New York) and cultured to allow to adherence. The cells were then incubated with Staurosporine (Santa Cruz, Santa Cruz) and the drugs with a series of concentration as 60, 20, 6.67, 2.22, 0.74, 0.25 and 0.082 l g/mL, respectively. After 24-h treatment, the cells were harvested by cell scraper orderly following by washed once with PBS. The cells were lysed in 150 µL RIPA cell lysis buffer (Santa Cruz, Santa Cruz) and incubated on ice for 30 min. The cellular supernatants were obtained via centrifugation at 12,000 g for 20 min at 4 °C and stored at −80 °C. The TRAP-PCR-ELISA assay was performed using a telomerase detection kit (Roche, Basel, Switzerland) according to the manufacturer’s protocol. In brief, 2 µL of cell extracts were mixed with 48 µL TRAP reaction mixtures. PCR was then initiated at 94 °C, 120 s for predenaturation and performed using 35 cycles each consisting of 94 °C for 30 s, 50 °C for 30 s, 72 °C for 90 s. Then 20 µL of PCR products were hybridised to a digoxigenin (DIG)-labeled telomeric repeat specific detection probe. And the PCR products were immobilised via the biotin-labeled primer to a streptavidin-coated microtiter plate subsequently. The immobilised DNA fragment were detected with a peroxidase-conjugated anti-DIG antibody and visualised following addition of the stop regent. The microtitre plate was assessed on TECAN Infinite M200 microplate reader (Mannedorf, Switzerland) at a wavelength of 490 nm, and the final value were presented as mean ± SD.

[1] = test system: human normal gastric mucosa cell (GES-1); assay: Proliferative inhibition of human normal cell (MTT); format: cell-based
From the text: In order to determine the selective cell toxicity of selected compounds. We subsequently conducted a proliferative inhibition assay with human normal gastric mucosa cell (GES-1).

[2] = test system: human liver cancer cell SMMC-7721; assay: MTT anticancer assay, SMMC-7721; format: cell-based; conditions: 48 h exposure, mean ± SD
Experimental: (§1) The MTT was purchased from Sigma. Cell Cycle Analysis Kit and Apoptosis Analysis Kit were purchased from Bestbio (China). Mitochondrial membrane potential assay kit with JC-1 was purchased from Beyotime (China). All the materials were used as received without further purification unless noted specifically. The cell culture was maintained on DMEM medium (Hyclone, US) supplemented with 10% fetal bovine serum (Sijiqing, China), 100 U/mL penicillin and 100 µg/mL streptomycin in 25-cm^2 culture flasks at 37 °C humidified atmosphere with 5% CO2. Drugs were dissolved in DMSO and filtered through 0.22-µm pore-size filter units before addition to cell line appropriate media. When tumor cells were grown to log phase, diluting to 5 × 10^4 cells mL^−1 with the complete medium, 100 µL of the obtained cell suspension was added to each well of 96-well culture plates. The subsequent incubation was performed at 37 °C, 5% CO2 atmosphere for 48 h before subjecting to anti-proliferation assessment. After 48-h exposure period, 20 µL of PBS containing 5 mg·mL^−1 of MTT was added to each well. After 4 h, the medium was replaced by 150 µL DMSO to dissolve the purple formazan crystals produced. The absorbance at 492 nm of each well was measured on an ELISA plate reader. The data represented the mean of three experiments in triplicate and were expressed as means ± SD. The IC50 value was defined as the concentration at which 50% of the cells could survive. The following human tumor cell lines were used in the assay: human gastric cancer cells SGC-7901, human liver cancer cell SMMC-7721 and HepG2, human cervical cancer cell Hela and human glioma cell U87.

human glioma cell U87 = assay: MTT anticancer assay, U87; format: cell-based; conditions: 48 h exposure, mean ± SD, dash = footnote d 'None'
Experimental: as §1

[3] = test system: human cervical cancer cell Hela; assay: MTT anticancer assay, Hela; format: cell-based; conditions: read-out: IC50 Hela
Experimental: as §1, with “The absorbance at 492 nm of each well was measured on an ELISA plate reader.” left out, “SD.” for “SD. The IC50 value was defined as the concentration at which 50% of the cells could survive. The following human tumor cell lines were used in the assay: human gastric cancer cells SGC-7901, human liver cancer cell SMMC-7721 and HepG2, human cervical cancer cell Hela and human glioma cell U87.”

[4] = test system: human gastric cancer cells SGC-7901; assay: MTT anticancer assay, SGC-7901; format: cell-based; conditions: for IC50: Homo sapiens, SGC-7901, MTT, 48 h exposure, mean ± SD
Experimental: as §1, with “The absorbance at 492 nm of each well was measured on an ELISA plate reader.” left out, “SD.” for “SD. The IC50 value was defined as the concentration at which 50% of the cells could survive. The following human tumor cell lines were used in the assay: human gastric cancer cells SGC-7901, human liver cancer cell SMMC-7721 and HepG2, human cervical cancer cell Hela and human glioma cell U87.”

[5] = test system: human liver cancer cell HepG2; assay: MTT anticancer assay, HepG2; format: cell-based; conditions: 48 h exposure, mean ± SD, dash = footnote d 'None'
Experimental: as §1

[6] = Octanol water partition coefficient, shake flask; format: physicochemical; conditions: octanol/PBS (pH 7.4), pH 7.4, shake flask, octanol/PBS pH 7.4, 37 °C, read-out: Log p (octanole water partition coefficient)
Experimental: Octanole water partition coefficients was measured by the method of shake flask with slight modification. The aqueous phase was replaced by PBS (pH 7.4). First, the phase of octanol and the aqueous were saturated with each other. Then, the mixture containing title compounds was shaken at 37 °C. After 24 h, the mixture was centrifuged at 4000 rpm for 30 min, followed by the measured with ultraviolet spectrophotometer. At last, logP values were calculated.

[7] = GES1, MTT, human normal gastric mucosa cell, read-out: GES-1 IC50

T1 sequence (O14746 whole entry): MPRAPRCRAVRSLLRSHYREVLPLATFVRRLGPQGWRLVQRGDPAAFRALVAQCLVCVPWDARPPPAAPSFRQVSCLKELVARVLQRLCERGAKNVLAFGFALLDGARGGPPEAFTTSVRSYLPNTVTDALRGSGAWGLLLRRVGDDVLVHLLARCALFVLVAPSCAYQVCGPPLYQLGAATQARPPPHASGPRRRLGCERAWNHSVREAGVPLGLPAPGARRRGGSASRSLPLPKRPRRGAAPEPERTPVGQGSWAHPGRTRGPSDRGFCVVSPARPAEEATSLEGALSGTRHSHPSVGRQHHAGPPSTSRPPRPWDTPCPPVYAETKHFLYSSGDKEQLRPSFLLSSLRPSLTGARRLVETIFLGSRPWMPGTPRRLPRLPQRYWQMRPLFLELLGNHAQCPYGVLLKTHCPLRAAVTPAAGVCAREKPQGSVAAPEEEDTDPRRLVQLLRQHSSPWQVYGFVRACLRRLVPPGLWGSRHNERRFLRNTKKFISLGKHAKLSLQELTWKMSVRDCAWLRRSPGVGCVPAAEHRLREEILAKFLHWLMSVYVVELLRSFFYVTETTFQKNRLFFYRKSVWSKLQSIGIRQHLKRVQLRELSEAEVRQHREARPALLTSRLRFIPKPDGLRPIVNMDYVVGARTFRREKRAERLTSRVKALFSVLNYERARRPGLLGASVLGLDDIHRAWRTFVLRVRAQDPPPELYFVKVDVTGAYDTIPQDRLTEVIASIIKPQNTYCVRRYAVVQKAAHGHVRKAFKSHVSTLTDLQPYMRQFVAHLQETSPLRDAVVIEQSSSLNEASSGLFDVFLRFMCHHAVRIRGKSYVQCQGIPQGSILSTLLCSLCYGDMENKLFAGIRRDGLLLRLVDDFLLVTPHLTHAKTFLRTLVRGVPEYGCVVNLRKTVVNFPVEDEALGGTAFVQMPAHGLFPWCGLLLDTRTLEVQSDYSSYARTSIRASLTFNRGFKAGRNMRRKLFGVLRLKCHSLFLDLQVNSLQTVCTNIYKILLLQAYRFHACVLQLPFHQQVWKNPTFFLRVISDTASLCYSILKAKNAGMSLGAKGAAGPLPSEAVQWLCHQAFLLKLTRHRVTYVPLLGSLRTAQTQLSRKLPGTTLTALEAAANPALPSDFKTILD
T1 sequence (O60832 whole entry partner): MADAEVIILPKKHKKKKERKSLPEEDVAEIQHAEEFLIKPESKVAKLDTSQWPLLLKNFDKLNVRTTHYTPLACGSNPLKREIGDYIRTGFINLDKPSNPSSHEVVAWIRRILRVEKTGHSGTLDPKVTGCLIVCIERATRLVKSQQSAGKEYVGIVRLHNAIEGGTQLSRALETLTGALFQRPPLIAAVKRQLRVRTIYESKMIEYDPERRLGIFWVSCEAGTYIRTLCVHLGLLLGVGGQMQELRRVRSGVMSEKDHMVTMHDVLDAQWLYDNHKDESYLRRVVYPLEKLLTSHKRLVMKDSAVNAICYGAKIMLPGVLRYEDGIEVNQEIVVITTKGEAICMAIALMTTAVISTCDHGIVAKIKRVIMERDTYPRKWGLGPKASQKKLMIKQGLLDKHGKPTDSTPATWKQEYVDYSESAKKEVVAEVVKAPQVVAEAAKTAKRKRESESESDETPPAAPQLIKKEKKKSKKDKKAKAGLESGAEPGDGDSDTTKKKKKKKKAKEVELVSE
T1 sequence (Q9NX24 whole entry partner): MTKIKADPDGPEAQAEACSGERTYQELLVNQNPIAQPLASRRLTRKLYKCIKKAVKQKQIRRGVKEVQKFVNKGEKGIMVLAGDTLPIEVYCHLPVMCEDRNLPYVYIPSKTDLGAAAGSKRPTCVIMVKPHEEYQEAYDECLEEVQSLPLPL
T1 sequence (Q9NPE3 whole entry partner): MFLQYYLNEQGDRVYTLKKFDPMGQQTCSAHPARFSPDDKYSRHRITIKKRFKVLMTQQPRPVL
T1 sequence (Q9NY12 whole entry partner): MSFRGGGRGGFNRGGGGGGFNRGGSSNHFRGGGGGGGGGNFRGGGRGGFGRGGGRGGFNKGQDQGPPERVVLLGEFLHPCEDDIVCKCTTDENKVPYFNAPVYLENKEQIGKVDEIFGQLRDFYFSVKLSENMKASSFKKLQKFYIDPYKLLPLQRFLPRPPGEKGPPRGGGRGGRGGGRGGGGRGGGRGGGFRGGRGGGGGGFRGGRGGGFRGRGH

## COc1cc(OC)c2c(=O)c(OCCCCN3CCN(C(=O)c4cc([N+](=O)[O-])cc([N+](=O)[O-])c4)CC3)c(-c3cc(OC)c(OC)c(OC)c3)oc2c1 [Compound 5k]
telomerase
  IC50: 1.44 ± 0.28 µM
[1]; Homo sapiens, GES1, read-out: GES-1 IC50
  IC50: 2550 ± 380 µM
[2]
  IC50: 4.01 ± 0.38 µM
Human glioma cell U87
  IC50: 8.14 ± 0.22 µM
[3]; MTT, 48 h exposure, mean ± SD
  IC50: 2.94 ± 0.25 µM
[4]
  activity against SGC-7901 cells (in words): good activity
  IC50: 5.12 ± 0.5 µM
[5]
  IC50: 21.2 ± 1.53 µM

## COc1cc(OC)c2c(=O)c(OCCCCN3CCN(C(=O)c4cc(Cl)ccc4[N+](=O)[O-])CC3)c(-c3cc(OC)c(OC)c(OC)c3)oc2c1 [Compound 5l]
[6]
  logP at 24 h: 4.82
[2]
  IC50: 5.2 ± 0.87 µM
Human glioma cell U87
  IC50: 16.2 ± 1.45 µM
[3]; MTT, 48 h exposure, mean ± SD
  IC50: 3.8 ± 0.31 µM
[4]
  activity against SGC-7901 cells (in words): good activity
  IC50: 5.81 ± 1.01 µM
[5]
  IC50: 29.1 ± 1.75 µM

## COc1cc(OC)c2c(=O)c(OCCCCN3CCN(C(=O)c4ccc(Cl)cc4)CC3)c(-c3cc(OC)c(OC)c(OC)c3)oc2c1 [Compound 5h]
[2]
  IC50: 14.1 ± 1.27 µM
Human glioma cell U87
  IC50: 25.6 ± 1.4 µM
[3]; MTT, 48 h exposure, mean ± SD
  IC50: 22.4 ± 0.87 µM
[4]
  IC50: 9.22 ± 1 µM
[5]
  IC50: 35.3 ± 1.97 µM

## COc1cc(OC)c2c(=O)c(OCCCCN3CCN(C(=O)c4ccc([N+](=O)[O-])cc4)CC3)c(-c3cc(OC)c(OC)c(OC)c3)oc2c1 [Compound 5g]
[2]
  IC50: 23.2 ± 1.83 µM
Human glioma cell U87
  IC50: 21.6 ± 0.9 µM
[3]; MTT, 48 h exposure, mean ± SD
  IC50: 17 ± 1.51 µM
[4]
  IC50: 10.5 ± 1.01 µM
[5]
  IC50: 40.5 ± 1.95 µM

## COc1cc(OC)c2c(=O)c(OCCCCN3CCN(C(=O)c4ccc(F)cc4F)CC3)c(-c3cc(OC)c(OC)c(OC)c3)oc2c1 [Compound 5a]
telomerase
  IC50: 11.3 ± 0.99 µM
[1]; [7]
  IC50: 4180 ± 600 µM
[2]
  IC50: 28 ± 0.98 µM
Human glioma cell U87
  IC50: 16.6 ± 1.95 µM
[3]; MTT, 48 h exposure, mean ± SD
  IC50: 25.5 ± 1.02 µM
[4]
  IC50: 16.6 ± 1.32 µM
[5]
  IC50: 33.4 ± 1.56 µM

## COc1cc(OC)c2c(=O)c(OCCCCN3CCN(C(=O)c4ccccc4[N+](=O)[O-])CC3)c(-c3cc(OC)c(OC)c(OC)c3)oc2c1 [Compound 5e]
telomerase
  IC50: 13.3 ± 1.25 µM
[1]; [7]
  IC50: 10000 ± 1220 µM
[2]
  IC50: 31.3 ± 1.63 µM
Human glioma cell U87
  IC50: > 60 µM
[3]; MTT, 48 h exposure, mean ± SD
  IC50: 25.1 ± 1.5 µM
[4]
  IC50: 13.2 ± 0.88 µM
[5]
  IC50: > 60 µM

## COc1cccc2c1C(=O)c1c(O)c3c(c(O)c1C2=O)C[C@@](O)(C(=O)CO)C[C@@H]3O[C@H]1C[C@H](N)[C@H](O)[C@H](C)O1 [ADM, doxorubicin, reference compound]
[2]
  IC50: 0.81 ± 0.06 µM
Human glioma cell U87
  IC50: 2.24 ± 0.12 µM
[3]; 48 h
  IC50: 0.21 ± 0.03 µM
[4]
  IC50: 0.98 ± 0.27 µM
[5]
  IC50: 2.87 ± 0.21 µM

## COc1cc(OC)c2c(=O)c(OCCCCN3CCN(C(=O)c4ccccc4)CC3)c(-c3cc(OC)c(OC)c(OC)c3)oc2c1 [Compound 5j]
[6]
  logP at 24 h: 3.01
[2]
  IC50: 7.29 ± 0.82 µM
Human glioma cell U87
  IC50: 20.3 ± 1.25 µM
[3]; MTT, 48 h exposure, mean ± SD
  IC50: 8.3 ± 0.3 µM
[4]
  activity against SGC-7901 cells (in words): good activity
  IC50: 7.56 ± 1.01 µM
[5]
  IC50: > 60 µM

## COc1cc(OC)c2c(=O)c(OCCCCN3CCN(C(=O)c4c(F)cccc4F)CC3)c(-c3cc(OC)c(OC)c(OC)c3)oc2c1 [Compound 5b]
[2]
  IC50: 17 ± 0.99 µM
Human glioma cell U87
  IC50: > 60 µM
[3]; MTT, 48 h exposure, mean ± SD
  IC50: 11.3 ± 0.85 µM
[4]
  IC50: 10.5 ± 1.08 µM
[5]
  IC50: 23.4 ± 1.23 µM

## COc1cc(OC)c2c(=O)c(OCCCCN3CCN(C(=O)c4c(F)cccc4Cl)CC3)c(-c3cc(OC)c(OC)c(OC)c3)oc2c1 [Compound 5c]
[2]
  IC50: 15.9 ± 1.01 µM
Human glioma cell U87
  IC50: 25.4 ± 1.55 µM
[3]; MTT, 48 h exposure, mean ± SD
  IC50: 9.77 ± 0.62 µM
[4]
  IC50: 9.31 ± 1.05 µM
[5]
  IC50: 28 ± 1.84 µM

## COc1cc(OC)c2c(=O)c(OCCCCN3CCN(C(=O)c4cccc(F)c4)CC3)c(-c3cc(OC)c(OC)c(OC)c3)oc2c1 [Compound 5d]
[2]
  IC50: 32 ± 1.53 µM
Human glioma cell U87
  IC50: > 60 µM
[3]; MTT, 48 h exposure, mean ± SD
  IC50: 31.4 ± 1.73 µM
[4]
  IC50: 18.5 ± 0.89 µM
[5]
  IC50: 35.5 ± 1.65 µM

## COc1cc(OC)c2c(=O)c(OCCCCN3CCN(C(=O)c4ccc(C(F)(F)F)cc4)CC3)c(-c3cc(OC)c(OC)c(OC)c3)oc2c1 [Compound 5f]
[1]; [7]
  IC50: 2980 ± 550 µM
[6]
  logP at 24 h: 3.35
[2]
  IC50: 24.2 ± 1.44 µM
Human glioma cell U87
  IC50: 18 ± 0.66 µM
[3]; MTT, 48 h exposure, mean ± SD
  IC50: 14.4 ± 0.8 µM
[4]
  activity against SGC-7901 cells (in words): good activity
  IC50: 6.97 ± 0.85 µM
[5]
  IC50: 37.4 ± 1.69 µM
